Results as given in US7897598B2, “Inhibitors of the anandamide transporter” (priority 1998, dated 2011).
Values joined by “and” are separate entries in the source; they are usually repeats but may differ in a detail not shown here. Equal values may be shown once. Read-outs that look alike come from different tables or passages of the source.

Columns and labels:
anandamide transporter [1] = system: anandamide transporter
[2] = system: adenylyl cyclase activity; experiment: cAMP concentrations (adenylyl cyclase activity) in forskolin-stimulated cortical neurons; assay type: cell-based, rat
anandamide transporter [3] = experiment: [3H]anandamide transport assay, inhibition in astrocytoma cells; conditions: for IC50: read-out: IC50, [3H]anandamide accumulation
CB1 receptors = CB1 receptors (Homo sapiens, UniProt P21554); experiment: Binding to CB1 receptors
Chain of CB1 receptors (P21554 whole entry): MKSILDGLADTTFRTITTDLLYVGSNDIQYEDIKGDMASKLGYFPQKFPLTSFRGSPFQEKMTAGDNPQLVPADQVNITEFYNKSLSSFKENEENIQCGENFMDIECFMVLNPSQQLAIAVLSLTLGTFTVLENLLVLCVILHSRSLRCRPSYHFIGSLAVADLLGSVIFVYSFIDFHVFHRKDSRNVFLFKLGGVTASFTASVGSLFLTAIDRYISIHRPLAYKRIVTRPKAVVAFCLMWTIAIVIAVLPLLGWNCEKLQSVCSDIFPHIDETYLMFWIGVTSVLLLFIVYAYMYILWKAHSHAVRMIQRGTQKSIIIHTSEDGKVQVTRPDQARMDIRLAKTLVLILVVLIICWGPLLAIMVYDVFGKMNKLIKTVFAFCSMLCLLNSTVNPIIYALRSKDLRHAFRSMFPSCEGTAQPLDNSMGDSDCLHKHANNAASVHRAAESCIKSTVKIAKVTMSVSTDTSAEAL

male Swiss mice = conditions: mouse, in vivo
anandamide transporter [4] = experiment: [3H]anandamide accumulation in cortical astrocytes in culture; assay type: cell-based, rat
anandamide transporter [5] = experiment: Transport (translocation) of radioactively labeled substrates into astrocytoma cells; assay type: cell-based, human; conditions: radioactively labeled compound, FIG. 4 and FIG. 5
anandamide transporter [6] = experiment: [3H]anandamide accumulation in neurons; assay type: cell-based, rat
[7] = molecular target: rat cerebral membranes ([3H]WIN-55212-2 binding) (Rattus norvegicus, UniProt P20272); experiment: Binding of [3H]WIN-55212-2 to rat cerebral membranes
Chain of rat cerebral membranes ([3H]WIN-55212-2 binding) (P20272 whole entry): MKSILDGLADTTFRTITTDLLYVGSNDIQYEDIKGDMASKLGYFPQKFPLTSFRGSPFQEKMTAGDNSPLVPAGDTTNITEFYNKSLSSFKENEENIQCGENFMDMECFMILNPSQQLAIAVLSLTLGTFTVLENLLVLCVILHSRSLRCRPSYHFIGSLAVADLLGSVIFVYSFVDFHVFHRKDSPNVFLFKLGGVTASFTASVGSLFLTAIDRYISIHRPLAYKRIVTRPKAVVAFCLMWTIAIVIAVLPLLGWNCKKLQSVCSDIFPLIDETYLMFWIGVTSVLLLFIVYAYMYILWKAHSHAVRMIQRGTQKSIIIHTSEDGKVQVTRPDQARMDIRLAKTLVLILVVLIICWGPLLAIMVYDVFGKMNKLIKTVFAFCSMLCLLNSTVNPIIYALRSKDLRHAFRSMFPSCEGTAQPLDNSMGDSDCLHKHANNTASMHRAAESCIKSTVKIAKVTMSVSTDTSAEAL

[8] = molecular target: T1, fatty acid amide hydrolase (FAAH) (Rattus norvegicus, UniProt P97612); experiment: FAAH activity in brain microsomes; assay type: biochemical
T1 construct: from tissue; host or cells: brain microsomes
T1 sequence (P97612 1-579): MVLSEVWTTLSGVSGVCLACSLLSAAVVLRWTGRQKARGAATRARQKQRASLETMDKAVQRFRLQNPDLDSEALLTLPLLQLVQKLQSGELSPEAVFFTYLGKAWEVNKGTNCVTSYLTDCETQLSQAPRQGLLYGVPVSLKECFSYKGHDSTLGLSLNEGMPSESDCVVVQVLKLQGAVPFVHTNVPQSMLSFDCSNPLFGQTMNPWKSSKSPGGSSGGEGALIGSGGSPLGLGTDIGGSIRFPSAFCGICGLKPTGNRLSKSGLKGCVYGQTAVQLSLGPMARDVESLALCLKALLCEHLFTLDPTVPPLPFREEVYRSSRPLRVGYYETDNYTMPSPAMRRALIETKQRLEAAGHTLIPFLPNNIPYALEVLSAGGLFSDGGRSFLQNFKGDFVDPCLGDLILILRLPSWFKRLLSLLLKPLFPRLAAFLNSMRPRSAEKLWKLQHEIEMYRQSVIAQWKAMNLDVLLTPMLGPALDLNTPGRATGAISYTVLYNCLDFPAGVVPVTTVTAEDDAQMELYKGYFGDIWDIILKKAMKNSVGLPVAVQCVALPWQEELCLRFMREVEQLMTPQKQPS

## CCCCC/C=C\C/C=C\C/C=C\CCCCCCC(=O)NCCO
Anandamide transporter [1]
  IC50: 13 ± 3.6 µM

## CCCCCCCC/C=C\CCCCCCCCCC(=O)NCCO
Anandamide transporter [1]
  IC50: 14.1 ± 1.2 µM

## CCCCCC=CCC=CCC=CCC=CCCCC(=O)NCC
Anandamide transporter [1]
  IC50: 48.5 ± 7.3 µM

## CCCCCC=CCC=CCC=CCC=CCCCC(N)=O
Anandamide transporter [1]
  IC50: 9 ± 2 µM

## CCCCCC=CCC=CCC=CCC=CCCCC(=O)OC(CO)CO
Anandamide transporter [1]
  IC50: 18.5 ± 0.7 µM

## CCCCCC=CCC=CCC=CCC=CCCCC(=O)OCC(O)CO (centres unmarked)
Anandamide transporter [1]
  IC50: 48.5 ± 8.1 µM

## CCCCCC=CCC=CCC=CCC=CCCCC(=O)N1CCOCC1
Anandamide transporter [1]
  IC50: 25 µM

## CCCCCC=CCC=CCC=CCC=CCCCC(=O)N1CCC(O)CC1
Anandamide transporter [1]
  IC50: 10 ± 0.2 µM

## CCCCCC=CCC=CCC=CCC=CCCCC(=O)N1CCCC(O)C1 (centres unmarked)
Anandamide transporter [1]
  IC50: 15 µM

## CCCCCC=CCC=CCC=CCC=CCCCC(=O)N1CCC(O)C1 (centres unmarked)
Anandamide transporter [1]
  IC50: 15.3 ± 3 µM

## CCCCCC=CCC=CCC=CCC=CCCC(C)(C)C(=O)NCCO
Anandamide transporter [1]
  IC50: 7.6 ± 1.2 µM

## CCCCC/C=C\C/C=C\C/C=C\C/C=C\CCCC(=O)Nc1cccc(O)c1 [AM403, N-(3-hydroxyphenyl)-arachidonamide]
[2]
  cAMP, % of forskolin alone: 92.4±2.3%
  enhancement of the anandamide response on cAMP (in words): less effective
Anandamide transporter [3]; human astrocytoma cells, ratio of IC50
  times less effective than N-(4-hydroxyphenyl)-arachidonamide: 10 times
Anandamide transporter [3]; human astrocytoma cells
  IC50: 21.3 ± 3.4 µM

## CCCCC/C=C\C/C=C\C/C=C\C/C=C\CCCC(=O)Nc1ccc(O)cc1 [AM404, N-(4-hydroxyphenyl)-arachidonamide]
[2]
  cAMP, % of forskolin alone: 89.8±2.6% and 84.4±4.9%
  decrease of anandamide threshold, factor: 1.100
  effect on cAMP concentrations when applied alone: did not reduce cAMP concentrations
  enhancement of the anandamide response on cAMP (in words): almost maximal effect
  increase of anandamide potency, factor: 10
CB1 receptors
  Ki: 1800 nM
Male Swiss mice
  antinociceptive effect alone (in words): no antinociceptive effect
  effect on anandamide-induced analgesia (in words): significantly enhanced and prolonged
Anandamide transporter [3]
  competition with [3H]anandamide for transport / uptake inhibition (in words): the most potent competitor in our series
Anandamide transporter [3]; human astrocytoma cells
  IC50: 2.2 ± 0.2 µM

## CCCCC[C@H](O)/C=C/[C@H]1[C@H](O)CC(=O)[C@@H]1C/C=C\CCCC(=O)O [PGE2, prostaglandin E2]
Anandamide transporter [4]
  effect on [3H]anandamide accumulation (in words): inability

## Cc1c(C(=O)c2cccc3ccccc23)c2cccc3c2n1[C@H](CN1CCOCC1)CO3 [WIN-55212-2, reference compound]
Anandamide transporter [4]
  effect on [3H]anandamide accumulation (in words): no effect
[2]
  cAMP, % of forskolin alone: 96.7±2.5%

## CCCCC/C=C\C/C=C\C/C=C\C/C=C\CCCC(=O)NCCO [anandamide, Arachidonyl ethanolamide]
Male Swiss mice
  latency to jump: 30.7 ± 0.8 s
  time after injection at which analgesia disappeared: 60 min
Anandamide transporter [1]
  IC50: 15.1 ± 3 µM

## CCCCC/C=C\C/C=C\C/C=C\C/C=C\CCCC(N)=O [arachidonamide]
Anandamide transporter [5]
  transport into cells (substrate translocation, in words): effectively transported into cells
Anandamide transporter [3]
  competition with [3H]anandamide for transport / uptake inhibition (in words): compete with anandamide for uptake

## Cc1c(C2(c3cc(Br)c(O)c(Br)c3C)OS(=O)(=O)c3ccccc32)cc(Br)c(O)c1Br [bromcresol green]
Anandamide transporter [6]
  IC50: 4 µM
Anandamide transporter [4]
  mode of inhibition of [3H]anandamide accumulation: noncompetitively
Anandamide transporter [4]; astrocytes
  IC50: 12 µM
[7]
  effect on binding of [3H]WIN-55212-2: no significant effect
[8]
  effect on FAAH activity: no significant effect
[2]; 10 μM inhibitor in the presence of WIN-55212-2 1 nM, n=3
  cAMP, % of forskolin alone: 92.9±2.3%
[2]; anandamide 0.3 μM, inhibitors 10 μM, SR-141716-A 1 μM
  enhancement of the anandamide response on cAMP (in words): less effective
[2]; inhibitor in the presence of glutamate 3 μM, n=3
  cAMP, % of forskolin alone: 84.4±3%

## CCCCCCCC/C=C\CCCCCCCC(=O)NCCO [drawing 6]
Anandamide transporter [1]
  IC50: 10.5 ± 1.2 µM

## CCCCCC=CCC=CCC=CCC=CCCCC(=O)NC(C)CO (centres unmarked) [drawing 12]
Anandamide transporter [1]
  IC50: 37.7 ± 0.7 µM

## CCCCCC=CCC=CCC=CCC=CCCCC(=O)NC(C)CO (centres unmarked) [drawing 13]
Anandamide transporter [1]
  IC50: 10.4 ± 1.2 µM

## CCCCCC=CCC=CCC=CCC=CCCC(C)(C)C(=O)NCC(C)O (centres unmarked) [drawing 21]
Anandamide transporter [1]
  IC50: 33.2 ± 4.2 µM

## CCCCCC=CCC=CCC=CCC=CCCC(C)(C)C(=O)NCC(C)O (centres unmarked) [drawing 22]
Anandamide transporter [1]
  IC50: 16.5 ± 1 µM

## N[C@@H](CCC(=O)O)C(=O)O [glutamate, reference compound]
[2]
  cAMP, % of forskolin alone: 91.6±2%

## CCCCCCCC/C=C\CCCCCCCC(=O)NCCO [oleylethanolamide]
Anandamide transporter [5]
  transport into cells (substrate translocation, in words): not transported at all

## CCCCCCCCCCCCCCCC(=O)NCCO [palmitoyl ethanolamide, reference compound]
Anandamide transporter [5]
  transport into cells (substrate translocation, in words): not transported to any significant extent
Anandamide transporter [4]; cortical astrocytes, WIN-55212-2 1 μM, SR-141716-A 10 μM
  effect on [3H]anandamide accumulation (in words): not

## cis-eicosadienoylethanolamide
Anandamide transporter [5]
  transport into cells (substrate translocation, in words): transported very slowly

## cis-eicosaenoylethanoladide
Anandamide transporter [5]
  transport into cells (substrate translocation, in words): not transported at all

## cis-eicosatrienoylethanolamide
Anandamide transporter [5]
  transport into cells (substrate translocation, in words): transported very slowly
